Positions of bridges follow the written chain, without caps; N, C: chain ends. Non-standard residues stand in square brackets, D forms with d. Residues, ends and D or L forms follow the SMILES beside them. NMeC = CN[C@@H](CS)C(=O)O; NMeA = CN[C@@H](C)C(=O)O; dAbu = CC[C@@H](N)C(=O)O; dNMeA = CN[C@H](C)C(=O)O; Abu = CC[C@H](N)C(=O)O; Nleu = CC(C)CNCC(=O)O; NEtG = CCNCC(=O)O

As usually defined, the Papp is the rate of passage across a membrane or cell layer, normalised by area and donor concentration. For orientation: Papp A→B means the apparent permeability from the apical to the basolateral side of a cell layer.

Data set [1] in a line: in vitro. As to conditions: PAMPA. (In PAMPA a lipid-coated filter parts donor from acceptor wells.)
Procedure: (§1) assay was carried out with a 96-well donor plate with 0.45 μ hydrophobic Immobilon-P membrane supports
(Millipore MAIPNTR10) and a 96-well Teflon acceptor plate (Millipore MSSACCEPTOR). The PAMPA
protocol then proceeded as follows:
(§2) Donor well solutions were prepared to a volume of 1 000 µL with the analytes as a solution in 1X
(§3) PBS pH 7.4 and 5% DMSO. To a 3 mL Eppendorf tube was added 950 µL of 1X PBS pH 7.4, 40
Analyte – 10 µM per compound
(§4) sonicated (5 min) to ensure full dissolution of the lecithin. The donor membrane plate was turned
(§5) upside down and bottom of the membranes exposed. 5 µL of the 1% soy lecithin solution in
(§6) dodecane was then placed on the bottom of the membrane, allowing the drop to spread across the
full area of the membrane. Any membranes with visible damage were not used in the assay. The
(§7) membranes were allowed to equilibrate for 5 min before loading.
3. Each well within the Teflon block acceptor plate that was to be used in the assay was then loaded
(§8) with 300 µL of 1X PBS pH 7.4 and 5% DMSO.
(§9) Working without break, 150 µL of each donor well solution was transferred from the to the 96-well
(§10) donor plate. Each mixture of interest was r un in quadruplicate, using a new well for each replicate.
(§11) As soon as the 96-well donor plate was finished being loaded, it was gently placed into the 96-well
(§12) Teflon acceptor plate, taking care not to trap any air bubbles beneath the membrane.
(§13) The donor/acceptor plates were covered gently with the lid to minimize evaporation and transferred
(§14) gently as a system to a sealed chamber and left to sit overnight at room temperature. The chamber
(§15) was kept from drying by placing a wet paper towel within to prevent evaporation.
(§16) After ~19-20 hours the donor plate was removed from the acceptor plate.
(§17) 50 µL of each well (donor and acceptor) were transferred to a 96 -well plate and diluted with 50 µL
(§18) of methanol prior to heat sealing and quantification by UPLC -MS.
Data set [2] can be described thus: in vitro. The following applies: dog, pH 7.4.
Procedure: We also tested the permeabilities of the pure compounds in a cell-based trans-well permeability assay using Mdr1 knockout Madin–Darby canine kidney (MDCK) cells which minimize the endogenous efflux activity of traditional MDCK cells.[54]
The gMDCKI cell line (overexpressed cell line of Madin -Darby Canine Kidney which acquired from the NIH)
maintained in DMEM medium supplemented with 1% pen -strep, 5 µg/mL Plasmocin, and 10% FBS under
standard culture conditions (37 °C, 95% humidity, and 5% CO2), were seeded (0.75 x 10^5 cells) on the HTS
Transwell-96 permeable support (Corning) to form a confluent monolayer for two days.
All experimental steps were fully automated on Hamilton Vantage. Compound stock solution (1 mM in
DMSO) was diluted (10 μM final in HBSS, pH 7.4) with Lucifer Yellow as leakage indicator (20 μM). After
washing with HBSS buffer, the solution of test compounds was added to the apical side of the monolayers.
The plate was incubated for 3 h at 37 °C. T0 samples (10 µL of the 10 µM compounds diluted solution with
LY) were transferred to a 96-well plate, and then 40 µL of HBSS was added. After 3 hours, 50 μL basolateral
samples in the receiving plate were transferred to a fresh 96-well plate and added 100 μL of IS solution
(Propranolol). LY were read by plate reader and the samples were analyzed by LC/MS/MS.
The apparent permeability coefficient (Papp) is calculated from the permeation rate and compound
concentration at t=0h and t=3h. Where:
dQ/dt: amount of product present in the basal (A-B) or apical (B-A) compartment as a function of time
A: area of transwell (cm2).
C0: initial concentration of product applied in the apical (A -B) or basal (B-A) compartment (nmol/ml).
A short description of data set [3]: PAMPA, compounds measured in multiplex as mixtures (primary protocol). The following applies: for Papp at 10 µM: PAMPA, pH 7.4, PAMPA Papp; for Papp at 10 µM / PAMPA Papp: internal standard, 10 µM; for PAMPA Pe_avg: Stereoscan Library A (Scaffold A), average.
Procedure: Passive permeabilities of the 36 compounds were measured in multiplex as mixtures of six compounds each using the parallel artificial membrane permeability assay (PAMPA).[44]−[46]
Protocol is identical for both mixture and pure compound analysis.
Two of the following: Carbamazepine (CBZ), propranolol (Prop), and 1NMe35 were
included as internal standards and prepared as DMSO stocks at a concentration of 2 000 µM.
as §1
(Millipore MAIPNTR10) and a 96-well Teflon acceptor plate (Millipore MSSACCEPTOR).
protocol then proceeded as follows:
as §2, §3
The solutions were vortexed and set aside.
Analyte – 10 µM per compound
A 1% solution of soy lecithin in dodecane was freshly prepared in a 3 mL Eppendorf tube and
as §4, §5, §6
full area of the membrane. Any membranes with visible damage were not used in the assay.
as §7
Each well within the Teflon block acceptor plate that was to be used in the assay was then loaded
as §8, §9, §10, §11, §12, §13, §14, §15, §16, §17, §18

Turning to `CCOC(=O)[C@@H]1CSCC(=O)N[C@H](CC)C(=O)N(CC(C)C)CC(=O)N[C@@H](CC(C)C)C(=O)N(C)[C@H](C)C(=O)N(C)[C@@H](C)C(=O)N[C@H](CC(C)C)C(=O)N(C)[C@H](C)C(=O)N[C@@H](CC(C)C)C(=O)N1C` [B1, O=C([C@@H](NC([C@H](N(C([C@H](NC([C@@H](N(C([C@H](N(C)C([C@@H](NC(CN1CC(C)C)=O)CC(C)C)=O)C)=O)C)C)=O)CC(C)C)=O)C)C)=O)CC(C)C)N([C@@H](CSCC(N[C@H](CC)C1=O)=O)C(OCC)=O)C] ({CH2CO}-[dAbu][Nleu]L[dNMeA][NMeA][dL][dNMeA]L[NMeC]-OEt; thioether N-9), the Papp at 10 µM was 10.1 ×10⁻⁶ cm/s in “in vitro [1]” (pH 7.4, PAMPA Papp) and around 10 ×10⁻⁶ cm/s in “in vitro [1]” (pH 7.4, Papp). In “in vitro [2]” (MDCK), this molecule came in with a Papp at 3 h, 10 µM of 1.3 ×10⁻⁶ cm/s. Moreover, in the data set “in vitro [2]”, the Papp A→B at 3 h, 10 µM was determined as 1.27 ×10⁻⁶ cm/s.
`CCOC(=O)[C@@H]1CSCC(=O)N[C@@H](CC)C(=O)N(CC(C)C)CC(=O)N[C@@H](CC(C)C)C(=O)N(C)[C@H](C)C(=O)N(C)[C@@H](C)C(=O)N[C@H](CC(C)C)C(=O)N(C)[C@H](C)C(=O)N[C@@H](CC(C)C)C(=O)N1C` [B1-1L, O=C([C@@H](NC([C@H](N(C([C@H](NC([C@@H](N(C([C@H](N(C)C([C@@H](NC(CN1CC(C)C)=O)CC(C)C)=O)C)=O)C)C)=O)CC(C)C)=O)C)C)=O)CC(C)C)N([C@@H](CSCC(N[C@@H](CC)C1=O)=O)C(OCC)=O)C] ({CH2CO}-[Abu][Nleu]L[dNMeA][NMeA][dL][dNMeA]L[NMeC]-OEt; thioether N-9): the Papp at 10 µM in “in vitro [1]” (pH 7.4, PAMPA Papp) was found to be 0.5 ×10⁻⁶ cm/s; in the data set “in vitro [1]” (pH 7.4, PAMPA Pe_avg), 0.455 ×10⁻⁶ cm/s. In “in vitro [2]”, this molecule returned a Papp A→B at 3 h, 10 µM of 0.03 ×10⁻⁶ cm/s.
For the molecule `NC(=O)N1c2ccccc2C=Cc2ccccc21` [Carbamazepine], the Papp at 10 µM in data set [3] (Lipo expt. group A1) was found to be 5.9 ± 0.3 ×10⁻⁶ cm/s; in data set [3] (Lipo expt. group A2), 6 ± 0.4 ×10⁻⁶ cm/s; in data set [3] (Lipo expt. group B1), 5.8 ± 0.4 ×10⁻⁶ cm/s; in data set [3] (Lipo expt. group B2), 6.3 ± 0.2 ×10⁻⁶ cm/s; in data set [3] (Lipo expt. group C1), 6.8 ± 0.1 ×10⁻⁶ cm/s; in data set [3] (Lipo expt. group C2), 6 ± 0.1 ×10⁻⁶ cm/s. Besides, the Papp at 10 µM in data set [3] (StereoA expt. group A2D) amounted to 4.4 ± 0.1 ×10⁻⁶ cm/s; in data set [3] (StereoA expt. group A2L), 4.4 ± 0.1 ×10⁻⁶ cm/s; in data set [3] (StereoA expt. group ADD) it was 4.2 ± 0.1 ×10⁻⁶ cm/s; in data set [3] (StereoA expt. group ADL), 4.3 ± 0.2 ×10⁻⁶ cm/s; in data set [3] (StereoA expt. group ALD) it was 4.3 ± 0.1 ×10⁻⁶ cm/s; in data set [3] (StereoA expt. group ALL), 5.1 ± 0.3 ×10⁻⁶ cm/s. Also, the Papp at 10 µM in data set [3] (StereoB expt. group B2D) turned out to be 6.3 ± 1.7 ×10⁻⁶ cm/s; in data set [3] (StereoB expt. group B2L) it was 5.6 ± 0.2 ×10⁻⁶ cm/s; in data set [3] (StereoB expt. group BDD), 5.5 ± 0.1 ×10⁻⁶ cm/s; in data set [3] (StereoB expt. group BDL), 5.8 ± 0.1 ×10⁻⁶ cm/s; in data set [3] (StereoB expt. group BLD), 5.5 ± 0.1 ×10⁻⁶ cm/s; in data set [3] (StereoB expt. group BLL), 5.8 ± 0.2 ×10⁻⁶ cm/s.
In the case of `CCOC(=O)[C@@H]1CSCC(=O)N[C@H](CC)C(=O)N(C)[C@@H](C)C(=O)N[C@H](CC(C)C)C(=O)N(C)[C@H](C)C(=O)N(CC)CC(=O)N[C@@H](CC(C)C)C(=O)N(C)[C@@H](C)C(=O)N[C@@H](CC(C)C)C(=O)N1C` [JF206_A2D_DDLL_Ethyl] ({CH2CO}-[dAbu][NMeA][dL][dNMeA][NEtG]L[NMeA]L[NMeC]-OEt; thioether N-9), in data set [3], the “PAMPA Pe_avg” value came to 0 ×10⁻⁶ cm/s.
On to `CCOC(=O)[C@@H]1CSCC(=O)N[C@H](CC)C(=O)N(C)[C@@H](C)C(=O)N[C@H](CC(C)C)C(=O)N(C)[C@H](C)C(=O)N(CC(C)C)CC(=O)N[C@@H](CC(C)C)C(=O)N(C)[C@@H](C)C(=O)N[C@@H](CC(C)C)C(=O)N1C` [JF206_A2D_DDLL_Isobutyl] ({CH2CO}-[dAbu][NMeA][dL][dNMeA][Nleu]L[NMeA]L[NMeC]-OEt; thioether N-9), for which the “PAMPA Pe_avg” value in data set [3] came out at 0 ×10⁻⁶ cm/s.
As to `CC(C)NCC(O)COc1cccc2ccccc12` (stereo not drawn) [Propranolol], the Papp at 10 µM in data set [3] (Lipo expt. group A1) came to 9.1 ± 0.4 ×10⁻⁶ cm/s; in data set [3] (Lipo expt. group A2), 9.2 ± 0.9 ×10⁻⁶ cm/s; in data set [3] (Lipo expt. group B2), 8.8 ± 0.2 ×10⁻⁶ cm/s; in data set [3] (Lipo expt. group C1), 9.8 ± 0.2 ×10⁻⁶ cm/s. Besides, the entries for the “PAMPA Papp” value in data set [3] (Lipo expt. group B1) and in data set [3] (Lipo expt. group C2) were 7.7 ± 0.8 x10-6 cm/s and 9.4 ± 0.4 x10-6 cm/s, respectively.

For the origin of these results see article PMC10885153, “Membrane Permeability in a Large Macrocyclic Peptide Driven by a Saddle-Shaped Conformation” (Journal of the American Chemical Society, 2024).
